Paper PMC8087795 (2021)

How the values were obtained:
[1] = system: oligoribonucleotide 3 (biotinylated truncated pre-miR-21) (RNA, miRNA) CCGACUGAUGUUGACUGUUGAAUCUCAUGGCAACACCAGUCGG; test: SPR steady state; conditions: 80 mM NaCl, 100 mM total Na+; 20 mM sodium cacodylate, pH 7.2; equivalent affinity for all sites; per site
[2] = system: oligoribonucleotide 4 (biotinylated FRET-pair truncated pre-miR-21) (RNA, miRNA, tC^O (cytosine analogue, donor) at 15; tCnitro (cytosine analogue, acceptor) at 24) CCGACUGAUGUUGACUGUUGAAUCUCAUGGCAACACCAGUCGG; test: SPR steady state; conditions: 80 mM NaCl, 100 mM total Na+; 20 mM sodium cacodylate, pH 7.2; equivalent affinity for all sites; per site
[3] = system: oligoribonucleotide 5 (hairpin loop FRET-labelled truncated pre-miR-21) (RNA, miRNA, tC^O (cytosine analogue, donor) at 24; tCnitro (cytosine analogue, acceptor) at 31) CCGACUGAUGUUGACUGUUGAAUCUCAUGGCAACACCAGUCGG; test: interbase-FRET, change in FRET efficiency; conditions: 80 mM NaCl, 100 mM total Na+; 20 mM sodium cacodylate, pH 7.2; 1 µM RNA, 15 µM compound; single concentration, not a constant
[4] = system: oligoribonucleotide 7 (stem FRET-labelled truncated pre-miR-21) (RNA, miRNA, tC^O (cytosine analogue, donor) at 15; tCnitro (cytosine analogue, acceptor) at 37) CCGACUGAUGUUGACUGUUGAAUCUCAUGGCAACACCAGUCGG; test: interbase-FRET, change in FRET efficiency; conditions: 80 mM NaCl, 100 mM total Na+; 20 mM sodium cacodylate, pH 7.2; 1 µM RNA, 15 µM compound; single concentration, not a constant
[5] = system: oligoribonucleotide 2 (truncated pre-miR-21, 43 nt) (RNA, miRNA) CCGACUGAUGUUGACUGUUGAAUCUCAUGGCAACACCAGUCGG; test: ITC; conditions: 80 mM NaCl, 100 mM total Na+; 20 mM sodium cacodylate, pH 7.2, 25 °C; 10 µM RNA; 1:1 fit

SMILES | Kd [1] [µM] | Kd [2] [µM] | ΔFRET15µM [3] | ΔFRET15µM [4] | Kd [5] [µM]
CCN[C@@H]1C[C@H](N)[C@@H](O[C@H]2OC(CN)=CC[C@H]2N)[C@H](O)[C@H]1O[C@H]1OC[C@](C)(O)[C@H](NC)[C@H]1O | 28 ± 35 | 27 ± 34 | – | – | –
CN[C@@H]1[C@@H](O)[C@@H](O[C@@H]2[C@@H](O)[C@H](O[C@H]3OC(CN)=CC[C@H]3N)[C@@H](N)C[C@H]2N)OC[C@]1(C)O | 4 ± 2 | 4 ± 2 | 0.023 | 0.041 | –
CN[C@@H]1[C@@H](O)[C@@H](O[C@@H]2[C@@H](O)[C@H](O[C@H]3O[C@H]([C@@H](C)O)[C@@H](O)[C@H](O)[C@H]3N)[C@@H](N)C[C@H]2N)OC[C@]1(C)O | 101 ± 44 | 94 ± 57 | – | – | –
CN[C@@H]1[C@@H](O[C@H]2O[C@H](CO)[C@@H](N)[C@H](O)[C@H]2O)O[C@H]2C[C@@H](N)[C@@H](O[C@H]3[C@H](O)[C@@H](O)[C@H](N)C[C@@H]3N)O[C@@H]2[C@@H]1O | 22 ± 12 | 23 ± 12 | – | – | –
CN[C@@H]1[C@H](O[C@H]2[C@H](O[C@H]3[C@H](O)[C@@H](O)[C@H](N=C(N)N)[C@@H](O)[C@@H]3N=C(N)N)O[C@@H](C)[C@]2(O)C=O)O[C@@H](CO)[C@H](O)[C@H]1O | 134 ± 76 | 115 ± 80 | 0.004 | 0.008 | –
NC[C@@H]1O[C@H](O[C@H]2[C@@H](O)[C@H](O[C@@H]3[C@@H](O)[C@H](N)C[C@H](N)[C@H]3O[C@H]3O[C@H](CN)[C@@H](O)[C@H](O)[C@H]3N)O[C@@H]2CO)[C@H](N)[C@@H](O)[C@@H]1O | 3.9 ± 2.8 | 2.7 ± 1.7 | 0.042 | 0.045 | 5.2 ± 0.8

Other lines, results leading:

Kd [1] [µM] | Kd [2] [µM] | ΔFRET15µM [3] | ΔFRET15µM [4] | Kd [5] [µM] | SMILES
15 ± 4 | 14 ± 3 | – | – | – | NCC[C@H](O)C(=O)N[C@@H]1C[C@H](N)[C@@H](O[C@H]2O[C@H](CN)[C@@H](O)[C@H](O)[C@H]2O)[C@H](O)[C@H]1O[C@H]1O[C@H](CO)[C@@H](O)[C@H](N)[C@H]1O
8 ± 4 | 8 ± 5 | 0.024 | 0.049 | – | NC[C@H]1O[C@H](O[C@H]2[C@H](O)[C@@H](O[C@H]3O[C@H](CO)[C@@H](O)[C@H](N)[C@H]3O)[C@H](N)C[C@@H]2N)[C@H](N)C[C@@H]1O
44 ± 18 | 45 ± 23 | – | – | – | NC[C@H]1O[C@H](O[C@H]2[C@H](O)[C@@H](O[C@H]3O[C@H](CO)[C@@H](O)[C@H](N)[C@H]3O)[C@H](N)C[C@@H]2N)[C@H](O)[C@@H](O)[C@@H]1O
90 ± 73 | 78 ± 67 | – | – | – | NC[C@H]1O[C@H](O[C@H]2[C@H](O[C@@H]3O[C@H](CO)[C@@H](O)[C@H]3O)[C@@H](O)[C@H](N)C[C@@H]2N)[C@H](N)[C@@H](O)[C@@H]1O
